Measurements published in PubChem BioAssay AID1745844 (Carcinogenic Potency Database (CPDB), 2022).
Calls of active or inactive are those of the source. How the calls were made is not given here. Peptide text beside a SMILES is read from it.

Test system: rodent lifetime carcinogenesis bioassay, tumor incidence TD50
Experiment: carcinogenic potency in animals, long-term in vivo studies, CPDB compilation (AID 1745844)

## CCCCNC(N)=O
mouse, strain C57BL/6, females, in feed, site: any site (literature study), lesion: several types, types named in the paper, dosed 52 weeks, study length 69 weeks
  carcinogen call: negative (inactive)
mouse, strain C57BL/6, females, in feed, site: liver, lesion: hepatocellular carcinoma, dosed 52 weeks, study length 69 weeks
  carcinogen call: negative (inactive)
mouse, strain C57BL/6, females, in feed, site: lung, lesion: adenoma, dosed 52 weeks, study length 69 weeks
  carcinogen call: negative (inactive)
mouse, strain C57BL/6, males, in feed, site: any site (literature study), lesion: several types, types named in the paper, dosed 52 weeks, study length 69 weeks
  TD50: 699 mg/kg/day (inactive)
mouse, strain C57BL/6, males, in feed, site: liver, lesion: hepatocellular carcinoma, dosed 52 weeks, study length 69 weeks
  carcinogen call: negative (inactive)
mouse, strain C57BL/6, males, in feed, site: lung, lesion: adenoma, dosed 52 weeks, study length 69 weeks
  TD50: 5510 mg/kg/day (inactive)
rat, strain Fischer 344, females, in feed, site: any site (literature study), lesion: several types, types named in the paper, dosed 52 weeks, study length 69 weeks
  carcinogen call: negative (inactive)
rat, strain Fischer 344, females, in feed, site: liver, lesion: one or several types, types not named, dosed 52 weeks, study length 69 weeks
  carcinogen call: negative (inactive)
rat, strain Fischer 344, males, in feed, site: any site (literature study), lesion: several types, types named in the paper, dosed 52 weeks, study length 69 weeks
  carcinogen call: negative (inactive)
rat, strain Fischer 344, males, in feed, site: liver, lesion: one or several types, types not named, dosed 52 weeks, study length 69 weeks
  carcinogen call: negative (inactive)

## CC1(C)O[C@@H]2C[C@H]3[C@@H]4CCC5=CC(=O)C=C[C@]5(C)[C@@]4(F)[C@@H](O)C[C@]3(C)[C@]2(C(=O)CO)O1
rat, strain Charles River CD (Sprague-Dawley), males, in drinking water, site: liver, lesion: hepatocellular adenoma, dosed 104 weeks, study length 104 weeks
  TD50: 0.0917 mg/kg/day
rat, strain Charles River CD (Sprague-Dawley), males, in drinking water, site: liver, lesion: hepatocellular carcinoma, dosed 104 weeks, study length 104 weeks
  TD50: 0.141 mg/kg/day
rat, strain Charles River CD (Sprague-Dawley), males, in drinking water, site: liver, lesion: several types, types named in the paper, dosed 104 weeks, study length 104 weeks
  TD50: 0.053 mg/kg/day

## COC(=O)[C@H](Cc1ccccc1)NC(=O)[C@@H](N)CC(=O)O (H-Asp-Phe-OMe)
rat, strain Charles River CD (Sprague-Dawley), females, in feed, site: any site (literature study), lesion: several types, types named in the paper, dosed 104 weeks, study length 104 weeks
  carcinogen call: negative (inactive)
rat, strain Charles River CD (Sprague-Dawley), females, in feed, site: brain, lesion: several types, types named in the paper, dosed 104 weeks, study length 104 weeks
  TD50: 118000 mg/kg/day (inactive)
rat, strain Charles River CD (Sprague-Dawley), females, in feed, site: liver, lesion: hepatoma, benign, dosed 104 weeks, study length 104 weeks
  carcinogen call: negative (inactive)
rat, strain Charles River CD (Sprague-Dawley), males, in feed, site: any site (literature study), lesion: several types, types named in the paper, dosed 104 weeks, study length 104 weeks
  carcinogen call: negative (inactive)
rat, strain Charles River CD (Sprague-Dawley), males, in feed, site: brain, lesion: several types, types named in the paper, dosed 104 weeks, study length 104 weeks
  TD50: 666000 mg/kg/day (inactive)
rat, strain Charles River CD (Sprague-Dawley), males, in feed, site: liver, lesion: hepatoma, benign, dosed 104 weeks, study length 104 weeks
  TD50: 1.3e+06 mg/kg/day (inactive)
rat, strain Slc-Wistar, females, in feed, site: brain, lesion: several types, types named in the paper, dosed 104 weeks, study length 104 weeks
  carcinogen call: negative (inactive)
rat, strain Slc-Wistar, males, in feed, site: brain, lesion: several types, types named in the paper, dosed 104 weeks, study length 104 weeks
  TD50: 186000 mg/kg/day (inactive)

## ClCOCC(COCCl)OCCl
mouse, strain Ha/ICR, females, i.p., site: abdomen, lesion: sarcoma, dosed 76 weeks, study length 76 weeks
  TD50: 3.44 mg/kg/day

## COc1cccc2c1cc([N+](=O)[O-])c1c(C(=O)O)cc3c(c12)OCO3
rat, strain Wistar, females, by gavage, site: forestomach, lesion: several types, types named in the paper, dosed 52 weeks, study length 69 weeks
  TD50: 0.0141 mg/kg/day
rat, strain Wistar, females, by gavage, site: forestomach, lesion: squamous-cell carcinoma, dosed 52 weeks, study length 69 weeks
  TD50: 0.101 mg/kg/day
rat, strain Wistar, females, by gavage, site: forestomach, lesion: squamous-cell papilloma, dosed 52 weeks, study length 69 weeks
  TD50: 0.0247 mg/kg/day
rat, strain Wistar, males, by gavage, site: forestomach, lesion: squamous-cell carcinoma, dosed 52 weeks, study length 69 weeks
  carcinogen call: positive

## O=C(O)C=Cc1ccc(O)c(O)c1
mouse, strain B6C3F1, females, in feed, site: any site (literature study), lesion: one or several types, types not named, dosed 96 weeks, study length 96 weeks
  TD50: 1900 mg/kg/day
mouse, strain B6C3F1, females, in feed, site: forestomach, lesion: squamous-cell carcinoma, dosed 96 weeks, study length 96 weeks
  TD50: 43300 mg/kg/day
mouse, strain B6C3F1, females, in feed, site: kidney, lesion: tubular-cell adenoma, dosed 96 weeks, study length 96 weeks
  TD50: 4700 mg/kg/day
mouse, strain B6C3F1, males, in feed, site: any site (literature study), lesion: one or several types, types not named, dosed 96 weeks, study length 96 weeks
  TD50: 3210 mg/kg/day
mouse, strain B6C3F1, males, in feed, site: forestomach, lesion: papilloma, dosed 96 weeks, study length 96 weeks
  TD50: 9790 mg/kg/day
mouse, strain B6C3F1, males, in feed, site: forestomach, lesion: several types, types named in the paper, dosed 96 weeks, study length 96 weeks
  TD50: 5270 mg/kg/day
mouse, strain B6C3F1, males, in feed, site: forestomach, lesion: squamous-cell carcinoma, dosed 96 weeks, study length 96 weeks
  TD50: 13300 mg/kg/day
mouse, strain B6C3F1, males, in feed, site: lung, lesion: alveolar-cell adenoma, dosed 96 weeks, study length 96 weeks
  TD50: 6110 mg/kg/day
mouse, strain B6C3F1, males, in feed, site: lung, lesion: alveolar-cell carcinoma, dosed 96 weeks, study length 96 weeks
  TD50: 41300 mg/kg/day
mouse, strain B6C3F1, males, in feed, site: lung, lesion: several types, types named in the paper, dosed 96 weeks, study length 96 weeks
  TD50: 5120 mg/kg/day
rat, strain F344/DuCrj, females, in feed, site: any site (literature study), lesion: one or several types, types not named, dosed 104 weeks, study length 104 weeks
  TD50: 312 mg/kg/day
rat, strain F344/DuCrj, females, in feed, site: forestomach, lesion: papilloma, dosed 104 weeks, study length 104 weeks
  TD50: 426 mg/kg/day
rat, strain F344/DuCrj, females, in feed, site: forestomach, lesion: several types, types named in the paper, dosed 104 weeks, study length 104 weeks
  TD50: 298 mg/kg/day
rat, strain F344/DuCrj, females, in feed, site: forestomach, lesion: squamous-cell carcinoma, dosed 104 weeks, study length 104 weeks
  TD50: 989 mg/kg/day
rat, strain F344/DuCrj, males, in feed, site: forestomach, lesion: papilloma, dosed 104 weeks, study length 104 weeks
  TD50: 377 mg/kg/day
rat, strain F344/DuCrj, males, in feed, site: forestomach, lesion: several types, types named in the paper, dosed 104 weeks, study length 104 weeks
  TD50: 272 mg/kg/day
rat, strain F344/DuCrj, males, in feed, site: forestomach, lesion: squamous-cell carcinoma, dosed 104 weeks, study length 104 weeks
  TD50: 656 mg/kg/day
rat, strain F344/DuCrj, males, in feed, site: forestomach, lesion: squamous-cell papilloma, dosed 51 weeks, study length 52 weeks
  TD50: 217 mg/kg/day
rat, strain F344/DuCrj, males, in feed, site: forestomach, lesion: squamous-cell papilloma, dosed 60 weeks, study length 60 weeks
  TD50: 542 mg/kg/day
rat, strain F344/DuCrj, males, in feed, site: kidney, lesion: tubular-cell adenoma, dosed 104 weeks, study length 104 weeks
  TD50: 3830 mg/kg/day

## Clc1cc(Cl)cc(-c2cc(Cl)cc(Cl)c2)c1
rat, strain Donryu, females, in feed, site: liver, lesion: one or several types, types not named, dosed 26 weeks, study length 84 weeks
  carcinogen call: negative (inactive)

## C#C[C@]1(C(C)=O)CC[C@H]2[C@@H]3CCC4=C[C@@H](C(C)=O)CC[C@@H]4[C@H]3CC[C@@]21C (tested in a mixture with another compound)
mouse, strain (C3H x RIII)F1 (MTV+), females, in feed, site: mammary tissue, wider than the gland, lesion: one or several types, types not named, dosed 104 weeks, study length 104 weeks
  TD50: 0.858 mg/kg/day
mouse, strain (C3H x RIII)F1 (MTV+), males, in feed, site: mammary tissue, wider than the gland, lesion: one or several types, types not named, dosed 104 weeks, study length 104 weeks
  TD50: 0.3 mg/kg/day

## c1ccc(NNc2ccccc2)cc1
mouse, strain B6C3F1, females, in feed, site: any site (literature study), lesion: several types, types named in the paper, dosed 78 weeks, study length 95 weeks
  TD50: 31.5 mg/kg/day
mouse, strain B6C3F1, females, in feed, site: liver, lesion: hepatocellular adenoma + hepatocellular carcinoma + neoplastic nodule, dosed 78 weeks, study length 95 weeks
  TD50: 26 mg/kg/day
mouse, strain B6C3F1, females, in feed, site: liver, lesion: hepatocellular adenoma + hepatocellular carcinoma, dosed 78 weeks, study length 95 weeks
  TD50: 26 mg/kg/day
mouse, strain B6C3F1, females, in feed, site: liver, lesion: hepatocellular carcinoma, dosed 78 weeks, study length 95 weeks
  TD50: 29.7 mg/kg/day
mouse, strain B6C3F1, females, in feed, site: lung, lesion: alveolar/bronchiolar adenoma + alveolar/bronchiolar carcinoma, dosed 78 weeks, study length 95 weeks
  TD50: 8760 mg/kg/day
mouse, strain B6C3F1, males, in feed, site: any site (literature study), lesion: several types, types named in the paper, dosed 78 weeks, study length 95 weeks
  carcinogen call: negative (inactive)
mouse, strain B6C3F1, males, in feed, site: liver, lesion: hepatocellular adenoma + hepatocellular carcinoma + neoplastic nodule, dosed 78 weeks, study length 95 weeks
  TD50: 1090 mg/kg/day
rat, strain Fischer 344, females, in feed, site: any site (literature study), lesion: several types, types named in the paper, dosed 78 weeks, study length 106 weeks
  TD50: 4.5 mg/kg/day
rat, strain Fischer 344, females, in feed, site: liver + mammary gland, lesion: neoplastic nodule + adenocarcinoma, NOS, dosed 78 weeks, study length 106 weeks
  TD50: 6.74 mg/kg/day
rat, strain Fischer 344, females, in feed, site: liver, lesion: hepatocellular adenoma + hepatocellular carcinoma + neoplastic nodule, dosed 78 weeks, study length 106 weeks
  TD50: 18.1 mg/kg/day
rat, strain Fischer 344, females, in feed, site: liver, lesion: neoplastic nodule, dosed 78 weeks, study length 106 weeks
  TD50: 18.1 mg/kg/day
rat, strain Fischer 344, females, in feed, site: mammary gland, lesion: adenocarcinoma, NOS, dosed 78 weeks, study length 106 weeks
  TD50: 11.4 mg/kg/day
rat, strain Fischer 344, males, in feed, site: Zymbal's gland, lesion: squamous-cell carcinoma, dosed 78 weeks, study length 106 weeks
  TD50: 38.5 mg/kg/day
rat, strain Fischer 344, males, in feed, site: adrenal gland, lesion: pheochromocytoma, dosed 78 weeks, study length 106 weeks
  TD50: 16.2 mg/kg/day
rat, strain Fischer 344, males, in feed, site: any site (literature study), lesion: several types, types named in the paper, dosed 78 weeks, study length 106 weeks
  TD50: 6.85 mg/kg/day
rat, strain Fischer 344, males, in feed, site: ear canal + Zymbal's gland, lesion: squamous-cell carcinoma + squamous-cell papilloma, dosed 78 weeks, study length 106 weeks
  TD50: 35.8 mg/kg/day
rat, strain Fischer 344, males, in feed, site: liver + Zymbal's gland, lesion: hepatocellular carcinoma + neoplastic nodule + squamous-cell carcinoma, dosed 78 weeks, study length 106 weeks
  TD50: 3.55 mg/kg/day
rat, strain Fischer 344, males, in feed, site: liver, lesion: hepatocellular adenoma + hepatocellular carcinoma + neoplastic nodule, dosed 78 weeks, study length 106 weeks
  TD50: 3.7 mg/kg/day
rat, strain Fischer 344, males, in feed, site: liver, lesion: hepatocellular carcinoma + neoplastic nodule, dosed 78 weeks, study length 106 weeks
  TD50: 3.7 mg/kg/day
rat, strain Fischer 344, males, in feed, site: liver, lesion: hepatocellular carcinoma, dosed 78 weeks, study length 106 weeks
  TD50: 4.67 mg/kg/day
